Assay results published in the NIST ThermoML archive (doi:10.1016/j.jct.2015.06.024).

Experiment: mn = molality of the nth substance listed, in mol/kg
Details: 84.5 kPa, Liquid; for speed of sound: Frequency=3 MHz, Sing-around technique in a fixed-path interferometer; for mass density: Vibrating tube method

CCCO [propan-1-ol] + O
Details	mass density, 288.15 K [kg/m3]	mass density, 293.15 K [kg/m3]	mass density, 298.15 K [kg/m3]	mass density, 303.15 K [kg/m3]	mass density, 308.15 K [kg/m3]	speed of sound, 288.15 K [m/s]	speed of sound, 293.15 K [m/s]	speed of sound, 298.15 K [m/s]	speed of sound, 303.15 K [m/s]	speed of sound, 308.15 K [m/s]
m1 = 0.01666	998.928	998.029	996.868	995.468	993.851	1467.6	1483.5	1497.7	1509.9	1520.5
m1 = 0.03333	998.757	997.859	996.698	995.295	993.677	1468.6	1484.5	1498.5	1510.7	1521.3
m1 = 0.0494	998.594	997.697	996.534	995.132	993.506	1469.5	1485.4	1499.3	1511.5	1521.9
m1 = 0.06674	998.419	997.52	996.356	994.954	993.328	1470.6	1486.4	1500.3	1512.3	1522.7
m1 = 0.08313	998.254	997.355	996.19	994.787	993.156	1471.7	1487.3	1501.1	1513.1	1523.3
m1 = 0.1002	998.081	997.18	996.013	994.609	992.983	1472.7	1488.3	1502	1513.8	1524
m1 = 0.134	997.747	996.843	995.676	994.267	992.634	1474.8	1490.1	1503.6	1515.4	1525.4
m1 = 0.1662	997.429	996.526	995.356	993.945	992.305	1476.8	1491.9	1505.3	1516.9	1526.8
